From patent US11912693B2, “Compounds for modulating S1P1 activity and methods of using the same” (TREVENA, INC., priority 2017, dated 2024)

Experiments:
[1] = molecular target: T1, human sphingosine-1-phosphate receptor 1 (S1P1) (Homo sapiens (Human), UniProt P21453); assay: Inhibition of cAMP production (HTRF cAMP HiRange), S1P1 CHO-K1 cells; type: cell-based; conditions: for Emax: CHO-K1, efficacy (SPAN) normalized to fingolimod, read-out: hS1P1 cAMP SPAN
Summary of the method: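 CHO-K1 cells stably co-expressing human S1P1 (C-terminal Prolink tag) and EA-β-arrestin2 were grown in AssayComplete Media 6 at 37° C. and 5% CO2, plated, and incubated overnight. Agonist-driven inhibition of intracellular cAMP was read by TR-FRET with the HTRF cAMP HiRange kit on a PheraStar reader. Potency is pEC50, and efficacy (SPAN) is normalized to fingolimod.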
Target sequence in this assay (P21453 whole entry, looked up): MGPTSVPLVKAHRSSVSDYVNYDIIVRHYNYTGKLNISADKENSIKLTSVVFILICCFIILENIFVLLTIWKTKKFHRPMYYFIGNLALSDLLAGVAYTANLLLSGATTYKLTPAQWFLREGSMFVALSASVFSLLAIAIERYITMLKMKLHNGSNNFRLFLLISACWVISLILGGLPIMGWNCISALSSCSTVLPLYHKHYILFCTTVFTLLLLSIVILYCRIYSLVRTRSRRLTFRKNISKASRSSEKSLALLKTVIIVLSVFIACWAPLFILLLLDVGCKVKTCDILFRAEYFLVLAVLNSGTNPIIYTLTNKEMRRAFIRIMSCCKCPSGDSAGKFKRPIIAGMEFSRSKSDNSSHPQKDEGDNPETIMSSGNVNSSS

[2] = molecular target: T1, human sphingosine-1-phosphate receptor 1 (S1P1); assay: β-Arrestin2 recruitment assay (PathHunter), S1P1 CHO-K1 cells; type: cell-based; conditions: for Emax: CHO-K1, efficacy (SPAN) normalized to fingolimod, read-out: hS1P1 B-arrestin2 SPAN
Summary of the method: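 Enzyme-fragment complementation read-out: agonist-driven β-arrestin2 binding to ProLink-tagged human S1P1 in stable CHO-K1 cells restores β-galactosidase, measured 1 h at room temperature after a 60 min 37° C. compound incubation. Potency as pEC50, efficacy relative to fingolimod (SPAN).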
Target sequence in this assay (P21453 whole entry, looked up): as above
Target sequence in this assay (P32121 whole entry partner, looked up): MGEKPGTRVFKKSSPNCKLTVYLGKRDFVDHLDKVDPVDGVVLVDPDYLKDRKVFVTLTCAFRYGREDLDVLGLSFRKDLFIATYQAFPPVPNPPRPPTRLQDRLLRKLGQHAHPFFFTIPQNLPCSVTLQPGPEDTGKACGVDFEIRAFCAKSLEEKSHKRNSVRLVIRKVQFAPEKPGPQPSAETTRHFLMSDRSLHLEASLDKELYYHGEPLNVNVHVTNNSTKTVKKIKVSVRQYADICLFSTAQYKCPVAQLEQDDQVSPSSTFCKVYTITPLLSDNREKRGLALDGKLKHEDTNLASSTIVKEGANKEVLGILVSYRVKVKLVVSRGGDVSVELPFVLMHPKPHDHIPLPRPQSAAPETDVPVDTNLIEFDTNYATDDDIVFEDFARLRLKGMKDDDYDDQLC

[3] = test system: paclitaxel induced peripheral neuropathy; assay: Reversal of allodynia induced by paclitaxel in mice (s.c. or p.o., von Frey frequency method); type: in vivo, c57bl/6 mice; conditions: Mus musculus; for inhibition in vivo at 1 mg/kg: sc, 0.5 h, 1 mg/kg s.c., tested 30 min after dosing, read-out: Screen @ 1 mg/kg sc (% MPE); for inhibition in vivo at 3 mg/kg: po, 1 h, 3 mg/kg p.o., tested 60 min after dosing, read-out: Screen @ 3 mg/kg po (% MPE)
Protocol: Compounds were tested for efficacy in mouse models of chemotherapy induced peripheral neuropathy. […] For these studies […]/6 mice are habituated to the test environment and baseline measurements of pain sensitivity are assessed. To determine mechanical responses, the threshold for responses to punctate mechanical stimuli (mechanical hyperalgesia) was tested according to the frequency method. In brief, the plantar surface of the animal hindpaw was stimulated with a single von Frey monofilament (0.4 g) for approximately 1-2 seconds. If there was a withdrawal response, it was recorded as a positive response. A response was defined as a lifting or shaking of the paw upon stimulation. This was repeated ten times for each mouse. The final measurement for each mouse is the % non-response to stimulation for the ten trials. The % non-response to stimulation is converted to a % MPE. For paclitaxel induced peripheral neuropathy, a series of injections of PAC (6 mg/kg, i.p.) on days 1, 3, 5 and 7 is used to induce peripheral neuropathy. After approximately 14 days from the initiation of PAC injections, animals are re-assessed for mechanical sensitivity. […] On test day animals are dosed with compounds either subcutaneously or orally and tested for mechanical response by the frequency method either 30 min (s.c.) or 60 min (p.o.) after drug administration. Data is presented as a % MPE. For oxaliplatin induced peripheral neuropathy, a series of injections of OXA (4 mg/kg, i.p.) on days 1-5 is used to induce peripheral neuropathy. After approximately 14 days from the initiation of PAC injections, animals are re-assessed for mechanical sensitivity. […] On test day animals are dosed with compounds subcutaneously and tested for mechanical response by the frequency method 30 min after drug administration. Data is presented as a % MPE. One or more of the compounds show reversal of chemotherapeutic induced peripheral neuropathy.

[4] = inhibition of cAMP production, S1P1 CHO-K1 cells
[5] = β-arrestin2 recruitment, S1P1 CHO-K1 cells

CC(C)n1nnc2cc(-c3noc(-c4ccccc4C(F)(F)F)n3)ccc21 [Compound 33, 3-(1-isopropylbenzotriazol-5-yl)-5-[2-(trifluoromethyl)phenyl]-1,2,4-oxadiazole]
hS1P1 cAMP pEC50 [1, 4]: >6.5
hS1P1 B-arrestin2 pEC50 [2, 5]: >5
inhibition in vivo at 1 mg/kg [3]: < 50%

CCC1(CC)CC(=O)c2cc(-c3nc(-c4ccc(S(N)(=O)=O)cc4)no3)ccc2O1 [Compound 106, 4-(5-(2,2-diethyl-4-oxochroman-6-yl)-1,2,4-oxadiazol-3-yl)benzenesulfonamide]
Emax [1]: > 75%
hS1P1 cAMP pEC50 [1, 4]: >6.5
Emax [2]: > 75%
hS1P1 B-arrestin2 pEC50 [2, 5]: >5
inhibition in vivo at 1 mg/kg [3]: < 50%

CC(C)Nc1ccc(-c2nc(-c3ccc4c(c3)CC(=O)N4)no2)cc1C#N [Compound 107, 2-(isopropylamino)-5-(3-(2-oxoindolin-5-yl)-1,2,4-oxadiazol-5-yl)benzonitrile]
Emax [1]: > 75%
hS1P1 cAMP pEC50 [1, 4]: >6.5
Emax [2]: > 75%
hS1P1 B-arrestin2 pEC50 [2, 5]: >5
inhibition in vivo at 1 mg/kg [3]: < 50%

CCC1(CC)CC(=O)c2cc(-c3nc(-c4ccc(C(N)=O)cc4)no3)ccc2O1 [Compound 179, 4-(5-(2,2-diethyl-4-oxochroman-6-yl)-1,2,4-oxadiazol-3-yl)benzamide]
Emax [1]: > 75%
hS1P1 cAMP pEC50 [1, 4]: >6.5
Emax [2]: > 75%
hS1P1 B-arrestin2 pEC50 [2, 5]: >5
inhibition in vivo at 3 mg/kg [3]: > 50%
inhibition in vivo at 1 mg/kg [3]: > 50%

N#Cc1cc(-c2nc(-c3ccc4c(c3)CC(=O)N4)no2)ccc1NCC1CC1 [Compound 210, 2-((cyclopropylmethyl)amino)-5-(3-(2-oxoindolin-5-yl)-1,2,4-oxadiazol-5-yl)benzonitrile]
Emax [1]: > 75%
hS1P1 cAMP pEC50 [1, 4]: >6.5
Emax [2]: > 75%
hS1P1 B-arrestin2 pEC50 [2, 5]: >5
inhibition in vivo at 1 mg/kg [3]: < 50%

C=CCNc1ccc(-c2nc(-c3ccc4c(c3)CC(=O)N4)no2)cc1C#N [Compound 224, 2-(allylamino)-5-(3-(2-oxoindolin-5-yl)-1,2,4-oxadiazol-5-yl)benzonitrile]
Emax [1]: > 75%
hS1P1 cAMP pEC50 [1, 4]: >6.5
Emax [2]: > 75%
hS1P1 B-arrestin2 pEC50 [2, 5]: >5
inhibition in vivo at 1 mg/kg [3]: > 50%

CCC1(CC)CC(=O)c2cc(-c3nc(-c4ccc5c(c4)nnn5C(C)C)no3)ccc2O1 [Compound 305, 2,2-diethyl-6-(3-(1-isopropyl-1H-benzo[d][1,2,3]triazol-5-yl)-1,2,4-oxadiazol-5-yl)chroman-4-one]
hS1P1 cAMP pEC50 [1, 4]: <6.5
hS1P1 B-arrestin2 pEC50 [2, 5]: <5
inhibition in vivo at 1 mg/kg [3]: > 50%

Cc1ccccc1-c1noc(-c2ccc3c(c2)nnn3C2CCC2)n1 [Compound 306, 1-cyclobutyl-5-[3-(2-methylphenyl)-1,2,4-oxadiazol-5-yl]-1H-1,2,3-benzotriazole]
hS1P1 cAMP pEC50 [1, 4]: >6.5
hS1P1 B-arrestin2 pEC50 [2, 5]: >5
inhibition in vivo at 1 mg/kg [3]: < 50%

CC(F)CNc1ccc(-c2nc(-c3ccc4c(c3)CCC(=O)N4)no2)cc1C#N (stereo not drawn) [Compound 348, 2-[(2-fluoropropyl)amino]-5-[3-(2-oxo-1,2,3,4-tetrahydroquinolin-6-yl)-1,2,4-oxadiazol-5-yl]benzonitrile]
Emax [1]: > 75%
hS1P1 cAMP pEC50 [1, 4]: >6.5
Emax [2]: > 75%
hS1P1 B-arrestin2 pEC50 [2, 5]: >5
inhibition in vivo at 3 mg/kg [3]: > 50%

N#Cc1cc(-c2nnc(-c3ccc4[nH]ncc4c3)o2)ccc1NCC(F)F [Compound 354, 2-[(2,2-difluoroethyl)amino]-5-[5-(1H-indazol-5-yl)-1,3,4-oxadiazol-2-yl]benzonitrile]
Emax [1]: > 75%
hS1P1 cAMP pEC50 [1, 4]: >6.5
Emax [2]: > 75%
hS1P1 B-arrestin2 pEC50 [2, 5]: >5
inhibition in vivo at 3 mg/kg [3]: > 50%

CC(C)(CO)n1nnc2cc(-c3noc(-c4ccc5nc[nH]c5c4)n3)ccc21 [Compound 642, 2-(5-(5-(1H-benzo[d]imidazol-6-yl)-1,2,4-oxadiazol-3-yl)-1H-benzo[d][1,2,3]triazol-1-yl)-2-methylpropan-1-ol]
hS1P1 cAMP pEC50 [1, 4]: <6.5
hS1P1 B-arrestin2 pEC50 [2, 5]: <5

CC(C)(CO)n1nnc2cc(-c3noc(-c4cccnc4F)n3)ccc21 [Compound 643, 2-(5-(5-(2-fluoropyridin-3-yl)-1,2,4-oxadiazol-3-yl)-1H-benzo[d][1,2,3]triazol-1-yl)-2-methylpropan-1-ol]
Emax [1]: > 75%
hS1P1 cAMP pEC50 [1, 4]: <6.5
Emax [2]: < 75%
hS1P1 B-arrestin2 pEC50 [2, 5]: <5

CC(C)(CO)n1nnc2cc(-c3noc(-c4cnccc4C(F)(F)F)n3)ccc21 [Compound 644, 2-methyl-2-(5-(5-(4-(trifluoromethyl)pyridin-3-yl)-1,2,4-oxadiazol-3-yl)-1H-benzo[d][1,2,3]triazol-1-yl)propan-1-ol]
Emax [1]: > 75%
hS1P1 cAMP pEC50 [1, 4]: <6.5
Emax [2]: > 75%
hS1P1 B-arrestin2 pEC50 [2, 5]: <5

O=C1CNc2ccc(-c3nc(-c4cn[nH]c4)no3)cc2N1 [Compound 645, 7-[3-(1H-pyrazol-4-yl)-1,2,4-oxadiazol-5-yl]-1,2,3,4-tetrahydroquinoxalin-2-one]
hS1P1 cAMP pEC50 [1, 4]: <6.5
hS1P1 B-arrestin2 pEC50 [2, 5]: <5

CC(C)n1nnc2cc(-c3nc(-c4cn[nH]c4)no3)ccc21 [Compound 646, 1-(propan-2-yl)-5-[3-(1H-pyrazol-4-yl)-1,2,4-oxadiazol-5-yl]-1H-1,2,3-benzotriazole]
Emax [1]: < 75%
EC50 ([1]; inhibition of cAMP production, S1P1 CHO-K1 cells, read-out: hS1P1 cAMP pEC50 (converted)): > 0.316 µM
Emax [2]: > 75%
EC50 ([2]; β-arrestin2 recruitment, S1P1 CHO-K1 cells, read-out: hS1P1 B-arrestin2 pEC50 (converted)): > 10 µM

COc1ccc(-c2noc(-c3ccc4c(c3)nnn4CC(C)(C)O)n2)c(C)c1 [Compound 647, 1-{5-[3-(4-methoxy-2-methylphenyl)-1,2,4-oxadiazol-5-yl]-1H-1,2,3-benzotriazol-1-yl}-2-methylpropan-2-ol]
Emax [1]: > 75%
hS1P1 cAMP pEC50 [1, 4]: >6.5
Emax [2]: > 75%
hS1P1 B-arrestin2 pEC50 [2, 5]: >5

N#Cc1cc(-c2nc(-c3ccc4[nH]c(=O)oc4c3)no2)ccc1NCC1CC1 [Compound 726, 2-(cyclopropylmethylamino)-5-[3-(2-oxo-3H-1,3-benzoxazol-6-yl)-1,2,4-oxadiazol-5-yl]benzonitrile]
inhibition in vivo at 3 mg/kg [3]: > 50%

N#Cc1cc(-c2nc(-c3ccc4c(c3)CNC4=O)no2)ccc1NCC1CC1 [Compound 727, 2-((cyclopropylmethyl)amino)-5-(3-(1-oxoisoindolin-5-yl)-1,2,4-oxadiazol-5-yl)benzonitrile]
inhibition in vivo at 3 mg/kg [3]: > 50%

CC(C)Nc1ccc(-c2nc(-c3ccc4[nH]c(=O)[nH]c4c3)no2)cc1C#N [Compound 728, 2-(isopropylamino)-5-(3-(2-oxo-2,3-dihydro-1H-benzo[d]imidazol-5-yl)-1,2,4-oxadiazol-5-yl)benzonitrile]
inhibition in vivo at 3 mg/kg [3]: > 50%

N#Cc1cc(-c2nc(-c3ccc4[nH]c(=O)[nH]c4c3)no2)ccc1NCC1CC1 [Compound 729, 2-((cyclopropylmethyl)amino)-5-(3-(2-oxo-2,3-dihydro-1H-benzo[d]imidazol-5-yl)-1,2,4-oxadiazol-5-yl)benzonitrile]
inhibition in vivo at 3 mg/kg [3]: > 50%

N#Cc1cc(-c2nnc(-c3ccc4cnccc4c3)o2)ccc1NCC(F)F [Compound 733, 2-[(2,2-difluoroethyl)amino]-5-[5-(isoquinolin-6-yl)-1,3,4-oxadiazol-2-yl]benzonitrile]
inhibition in vivo at 3 mg/kg [3]: > 50%

CC(C)Nc1ccc(-c2nnc(-c3ccc4cnccc4c3)o2)cc1C#N [Compound 735, 5-[5-(isoquinolin-6-yl)-1,3,4-oxadiazol-2-yl]-2-[(propan-2-yl)amino]benzonitrile]
inhibition in vivo at 3 mg/kg [3]: < 50%

CC(C)Nc1ccc(-c2nnc(-c3ccc4ncccc4c3)o2)cc1C#N [Compound 736, 2-[(propan-2-yl)amino]-5-[5-(quinolin-6-yl)-1,3,4-oxadiazol-2-yl]benzonitrile]
inhibition in vivo at 3 mg/kg [3]: > 50%
